Entries after “also recorded” stand apart in the source; their conditions may differ.
Assays:
Z. mobilis TGT [1] = biological target: T1, Z. mobilis TGT (Zymomonas mobilis subsp. mobilis, UniProt P28720); experiment: Isothermal titration calorimetry (ITC) of ligand binding to TGT; conditions: for thermodynamic binding signature in words / Kd / ΔG^0: ITC; for Kd: 298 K, direct titration; for ΔG^0: calculated at 298.15 K; for ΔH^0bind: ionization corrected (intercept of ΔH^0obs vs buffer ΔH^0ion); for -TΔΔS^0 / ΔΔH^0: relative to 1 used as reference; for protons picked up during binding: slope of linear regression, average over inhibitors 2 and 5
T1 construct: Strep-tag II (N, cleaved yes); made in house; host or cells: Escherichia coli
Source text: To further analyze the binding properties of ligands studied in this contribution we decided to establish the thermodynamic analysis of a representative subset via isothermal titration calorimetry (ITC) (data for 1 had been determined previously). ITC enables the simultaneous determination of affinity (Kd) and stoichiometry (n) as well as enthalpic contribution (ΔH^0). The entropic (-TΔS^0) term to Gibbs free energy (ΔG^0 = ΔH^0—TΔS^0) results from ΔG^0–ΔH^0 difference. Due to insufficient availability of some compounds in high purity, quantity and sufficient solubility to perform proper ITC measurements, we decided to focus our investigation on 1, 2, 3 and 5.
We recently discovered that the binding of lin-benzoguanine derivatives is associated with protonation effects that are superimposed to the heat signal of ligand binding to TGT. […] Such protonation effects become transparent when ITC measurements are performed from at least three different buffers (see Materials and methods). The overlaid […] of the protonation step was determined as the intersection of the linear regression line obtained by plotting the observed enthalpies of the studied ligands (ΔH^0obs) against the heat of ionization of the corresponding buffers (ΔH^0ion) (Fig 9a). […] The examined inhibitors 2 and 5, on average receive 0.61 ± 0.04 protons per mole of the formed complex, which is in reasonable agreement with the results obtained for 1 (0.89) and similar compounds [29].
ITC measurements were performed using a Microcal ITC200 calorimeter system from GE Healthcare. Z. mobilis TGT was dissolved in the ITC buffer (50 mM HEPES/Tricin/TRIS pH 7.8, 200 mM NaCl, 0.037% (v/v) Tween 20 and 3% (v/v) DMSO) to a final concentration of 10–20 μM.
The inhibitors were first dissolved in 100% (v/v) DMSO and diluted with the buffer solution to a final DMSO concentration of 3% (v/v). The concentration of the inhibitor in the syringe was adjusted to 200–300 μM with the ITC buffer. The reference cell contained filtered demineralized water. […] The initial delay before the injections were started was adjusted to 180–300 s and the spacing between each injection to 150–180 s. The first injection contained 0.3–0.6 μL of the inhibitor solution followed by injections of 1.0–2.4 μL until a saturation occurred. A stirring speed of 750 rpm was chosen. Raw data were collected as released heat per time. The direct titrations were done in three different buffers (HEPES/Tricin/TRIS) to correct for the overlaid protonation effect as previously described.The measured ΔH^0obs were plotted on the ordinate and the ionization enthalpy of the corresponding buffer ΔH^0ion on the abscissa (Fig 9). The positive slope of the linear regression line indicates how many protons per mole of formed complex are entrapped.
For estimation of binding affinity (Kd), Z. mobilis TGT was incubated with 90–100% saturation of inhibitor 3. Protein saturation was calculated according Rühmann et al. (2015). Inhibitor 1 as strong titrant was used to displace inhibitor 3.
For analysis of the raw data, peak integration, model fitting and evaluation, the programs NITPIC [57] and SEDPHAT [58] were used. The initial injection peak was removed and the areas of the remaining peaks were integrated. The correction of the heats of dilution was conducted by subtraction of the final constant injection peak area integrals. The A+B ↔ AB hetero-association model (1:1 stoichiometry) was applied, whereby ΔH^0 and Kd were directly obtained. The ΔG^0 and -TΔS^0 values were calculated using a temperature of 298.15 K. For illustration of the integrated raw data and the ITC isotherms, the program GUSSI was used. Obtained thermodynamic data per buffer are reported as mean values averaged over at least three measurements.

TGT homodimer = tested on: T2, TGT homodimer; experiment: Native ESI-MS of TGT:ligand 1:10 mixtures (dimer destabilization); design: species or system Zymomonas mobilis; conditions: for Relative proportion of TGT monomers: 2.5 µM TGT and 25 µM inhibitor (1:10), 1 M NH4Ac pH 7.5, without ligand 3.3 ± 0.7 %; for effect on TGT dimer stability / monomer proportion, in words: compared to measurements in the absence of any ligand, TGT:ligand 1:10
T2 construct: Strep-tag II (N, cleaved yes); made in house; host or cells: Escherichia coli
Procedure: In order to gain insights into the dimer disturbing potential seen in the crystal structures with the different ligands and to collect evidence for such a behavior also present in solution, native ESI-MS was performed. This technique enables to monitor the oligomerization state of TGT at equilibrium under non-denaturing conditions, in the absence or presence of saturating ligand concentrations. […] To ensure reliability, these comparative experiments were thus carried out adhering to strictly similar conditions (see Materials and methods).
Relative proportions of TGT-monomer signals extracted from individual 1:10 TGT:ligand mixtures (TGT monomer 2.5 μM) were quantified (S7 Fig, S1 Table) and normalized with respect to this value in the absence of any inhibitor.
Nano-ESI-MS analyses were performed as already described in the literature. Briefly, WT-TGT samples were exchanged twice against a 1 M ammonium acetate pH 7.5 buffer using microcentrifuge gel-filtration columns (Zeba 0.5 mL, Thermo Scientific). Next, protein concentration was determined spectrophotometrically at 280 nm (Nano-Drop 2000 spectrophotometer, Thermo Scientific).
Native MS experiments were carried out on a hybrid Q-TOF mass spectrometer (Synapt G2 HDMS, Waters) equipped with an automated chip-based nanoESI source (Triversa Nanomate, Advion Biosciences) operating in the positive ion mode. External calibrations were generated from the multiple charged ions produced by a 2 μM horse heart myoglobin solution diluted in a 1:1 (v/v) water: acetonitrile mixture acidified with 1% (v/v) formic acid (denaturing MS) and singly charged cesium iodide clusters diluted to 2 g∙L^-1 in a 1:1 (v/v) water: isopropanol solution (native MS).
Titration experiments in native conditions (1 M NH4Ac pH 7.5) were next triggered by mixing 2.5 μM TGT monomers with 25 μM of each ligand separately (ratio 1:10). The final DMSO concentration of each mixture never exceeded 0.25% (v/v). Non-covalent TGT dimers and TGT-ligand complexes were preserved in the gas phase according fine-tuned instrumental parameters, improving ion desolvation and transmission while maintaining intact structures (Vc = 80V, Pi = 6 mbar).
Relative quantification of TGT monomers was performed from charge states peak intensities of both monomeric (10 to 14+) and dimeric complexes (15 to 20+), using MassLynx 4.1 (Waters). TGT dimer disruption was determined for each ligand through their destabilization factor (Fig 8) which corresponds to their associated ratio of TGT monomers normalized from the apo-condition (S7 Fig; S1 Table). Standard deviations are calculated here from analytical triplicates. For the sake of reliability and comparability, all these experiments were performed within the same day, from identical experimental and instrumental conditions using the same buffer exchanged TGT batch (frozen and thawed only once).

Z. mobilis TGT [2] = biological target: T1, Z. mobilis TGT; conditions: cited from earlier work; for Ki / affinity as described in words: radio-labeled assay, determined previously
[3] = Ligand dilution in native MS buffer (precipitation); format: physicochemical; conditions: 1 M NH4Ac pH 7.5
[4] = HEPES buffer, Gibbs-Helmholtz equation
[5] = TRIS buffer, Gibbs-Helmholtz equation
[6] = Tricin buffer, Gibbs-Helmholtz equation

T1 sequence (P28720 whole entry): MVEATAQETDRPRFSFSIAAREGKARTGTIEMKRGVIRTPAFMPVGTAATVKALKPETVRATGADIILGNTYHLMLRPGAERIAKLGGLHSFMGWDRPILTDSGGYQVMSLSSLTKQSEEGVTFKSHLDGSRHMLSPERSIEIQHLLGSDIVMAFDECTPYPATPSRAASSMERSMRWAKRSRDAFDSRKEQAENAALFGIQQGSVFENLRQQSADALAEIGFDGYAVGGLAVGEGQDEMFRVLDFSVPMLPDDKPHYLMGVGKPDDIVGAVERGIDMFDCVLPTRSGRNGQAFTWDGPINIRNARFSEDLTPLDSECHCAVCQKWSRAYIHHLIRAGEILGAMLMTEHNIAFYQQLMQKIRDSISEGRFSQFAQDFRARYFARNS

CNc1nc2c(CC[C@H]3O[C@@H](OC)[C@H](O)[C@@H]3OC)c3nc(N)[nH]c(=O)c3cc2[nH]1 [Inhibitor 3]
heat signal in ITC, direct titration of ligand to TGT (Z. mobilis TGT [1]; HEPES, Tricin, TRIS buffers, also up to 308 K in HEPES): no heat effects at all could be detected; also recorded: no detectable heat signal
thermodynamic binding signature in words (Z. mobilis TGT [1]): overwhelmingly entropy-driven; also recorded: pure entropically-driven binding signature
heat signal in ITC displacement titration (Z. mobilis TGT [1]; TGT 100% saturated with 3, 1 as titrant, HEPES): again no heat signal was recorded
binding constant from ITC displacement experiments, in words (Z. mobilis TGT [1]; TGT saturated about 90% with 3, 1 as titrant): falls close to that of 1
Relative proportion of TGT monomers (TGT homodimer): 9.6%
effect on TGT dimer stability / monomer proportion, in words (TGT homodimer): slightly increased proportion of TGT monomer
Ki / affinity as described in words (Z. mobilis TGT [2]): submicromolar; also recorded: three-digit nanomolar

COc1ccc(CCc2c3nc[nH]c3cc3c(=O)[nH]c(N)nc23)cc1 [Inhibitor 7]
Relative proportion of TGT monomers (TGT homodimer): 9.4%
effect on TGT dimer stability / monomer proportion, in words (TGT homodimer): slightly increased proportion of TGT monomer

Nc1nc2cc3nc[nH]c3cc2c(=O)[nH]1 [lin-benzoguanine, reference compound]
Ki (Z. mobilis TGT [2]): 4100 ± 1000 nM

Nc1nc2c(CCc3ccccc3)c3nc[nH]c3cc2c(=O)[nH]1 [Inhibitor 9]
Relative proportion of TGT monomers (TGT homodimer): 12.6%
effect on TGT dimer stability / monomer proportion, in words (TGT homodimer): slightly increased proportion of TGT monomer; also recorded: most significant increase of normalized monomer proportion

CNc1nc2c(CCNCC3CCCCC3)c3nc(N)[nH]c(=O)c3cc2[nH]1 [Inhibitor 6]
Relative proportion of TGT monomers (TGT homodimer): 2.5%
effect on TGT dimer stability / monomer proportion, in words (TGT homodimer): did not exert any influence on dimer stability
precipitation upon ligand dilution in buffer [3]: partial precipitation; also recorded: apparent precipitation
Ki / affinity as described in words (Z. mobilis TGT [2]): single-digit nanomolar

CNc1nc2c(CCNCC3CCCC3)c3nc(N)[nH]c(=O)c3cc2[nH]1 [Inhibitor 5]
ΔH^0obs (Z. mobilis TGT [1]; HEPES buffer): -12 ± 0.813 kcal/mol
-TΔS^0 (Z. mobilis TGT [1]; [4]): 1.48 ± 0.884 kcal/mol
Kd (Z. mobilis TGT [1]): 32 ± 9 nM
ΔG^0 (Z. mobilis TGT [1]): -10.3 ± 0.19 kcal/mol
ΔH^0obs (Z. mobilis TGT [1]; TRIS buffer): -8.2 ± 0.526 kcal/mol
-TΔS^0 (Z. mobilis TGT [1]; [5]): -1.98 ± 0.335 kcal/mol
ΔH^0obs (Z. mobilis TGT [1]; Tricin buffer): -10.3 ± 0.98 kcal/mol
-TΔS^0 (Z. mobilis TGT [1]; [6]): 0.12 ± 0.789 kcal/mol
-TΔS^0 (Z. mobilis TGT [1]; ionization corrected): 4.49 kcal/mol
ΔH^0bind (Z. mobilis TGT [1]): -14.8 kcal/mol
-TΔΔS^0 (Z. mobilis TGT [1]; ionization corrected): -7.93 kcal/mol
ΔΔH^0 (Z. mobilis TGT [1]; ionization corrected): 7.58 kcal/mol
protons picked up during binding (Z. mobilis TGT [1]): 0.61 ± 0.04 protons per mole of the formed complex
Relative proportion of TGT monomers (TGT homodimer): 4.2%
effect on TGT dimer stability / monomer proportion, in words (TGT homodimer): No effect on dimer stability
Ki (Z. mobilis TGT [2]): 2 ± 1 nM
Ki / affinity as described in words (Z. mobilis TGT [2]): single-digit nanomolar

Cc1ccc(CCc2c3nc[nH]c3cc3c(=O)[nH]c(N)nc23)cc1 [Inhibitor 8]
Relative proportion of TGT monomers (TGT homodimer): 7.1%
effect on TGT dimer stability / monomer proportion, in words (TGT homodimer): slightly increased proportion of TGT monomer

CNc1nc2c(CC[C@H]3O[C@@H](OC)[C@H](O)[C@@H]3O)c3nc(N)[nH]c(=O)c3cc2[nH]1 [Inhibitor 2]
ΔH^0obs (Z. mobilis TGT [1]; HEPES buffer): -9.61 ± 0.526 kcal/mol
-TΔS^0 (Z. mobilis TGT [1]; [4]): 0.574 ± 0.502 kcal/mol
thermodynamic binding signature in words (Z. mobilis TGT [1]): more enthalpically favored binder
Kd (Z. mobilis TGT [1]): 275 ± 49 nM
ΔG^0 (Z. mobilis TGT [1]): -9.06 ± 0.096 kcal/mol
ΔH^0obs (Z. mobilis TGT [1]; TRIS buffer): -5.62 ± 0.478 kcal/mol
-TΔS^0 (Z. mobilis TGT [1]; [5]): -3.37 ± 0.382 kcal/mol
ΔH^0obs (Z. mobilis TGT [1]; Tricin buffer): -8.51 ± 0.765 kcal/mol
-TΔS^0 (Z. mobilis TGT [1]; [6]): -0.645 ± 0.645 kcal/mol
-TΔS^0 (Z. mobilis TGT [1]; ionization corrected): 3.8 kcal/mol
ΔH^0bind (Z. mobilis TGT [1]): -12.9 kcal/mol
-TΔΔS^0 (Z. mobilis TGT [1]; ionization corrected): -8.63 kcal/mol
ΔΔH^0 (Z. mobilis TGT [1]; ionization corrected): 9.49 kcal/mol
protons picked up during binding (Z. mobilis TGT [1]): 0.61 ± 0.04 protons per mole of the formed complex
Relative proportion of TGT monomers (TGT homodimer): 5.3%
effect on TGT dimer stability / monomer proportion, in words (TGT homodimer): No effect on dimer stability
Ki (Z. mobilis TGT [2]): 217 ± 81 nM
Ki / affinity as described in words (Z. mobilis TGT [2]): three-digit nanomolar

— article PMC5395182, “Soaking suggests “alternative facts”: Only co-crystallization discloses major ligand-induced interface rearrangements of a homodimeric tRNA-binding protein indicating a novel mode-of-inhibition” (PLoS ONE, 2017)
